What was measured:
[1] = target: isolated TTD (UHRF1_121–286); assay: FP displacement of FITC-labeled H3K9me3(1–25) peptide from TTD; assay type: biochemical; settings: FP displacement of N-terminally FITC-labeled H3K9me3(1-25), 0.04 μM peptide, 8 μM TTD, 20 mM Tris pH 8.5, 50 mM NaCl, 3% DMSO, 0.01% TX100
Source text: We designed a fragment library containing 2,040 compounds that was initially screened against isolated TTD (UHRF1_121–286) using a fluorescence polarization (FP) assay that tracked the displacement of a N-terminally tagged H3K9me3 peptide (H3K9me3(1–25)). From this screen, eight putative TTD-binding hits were identified. […] Because of limited commercial availability of the tricyclic amine, we focused only on BPC. The binding of this compound occurs close to (or within) the Arg^296-binding pocket; we observe significant perturbation of Trp^238 and Phe^278 resonances that form part of the pocket, and in Gly^236, which is directly adjacent to it (Fig. 4A and supplemental Fig. S5). We also see chemical shift changes in non-surface exposed residues that are close to or are in contact with the groove.
For FP assays, the TTD (UHRF1_121–286) was buffered in 20 mM Tris (pH 8.5), 50 mM NaCl, 3% DMSO, and 0.01% TX100. N-terminal FITC-labeled H3K9me3(1–25) peptide was synthesized and purified by Tufts University Core Services (Boston, MA). Titrations and compound binding assays were performed in a 10-μl volume at a constant labeled peptide concentration of 0.04 μM. For compound screening and titrations, a non-saturating fixed protein concentration of 8 μM TTD was used. FP assays were performed in 384-well Axygen plates using a Synergy 4 microplate reader (BioTek). […]

[2] = target: T1, TTD–PHD (UHRF1_126–366) (Homo sapiens, UniProt Q96T88); assay: SAXS of TTD–PHD in the presence of BPC
T1 construct: His tag (TEV-cleavable) (N); made in house
T1 sequence (Q96T88 126-366): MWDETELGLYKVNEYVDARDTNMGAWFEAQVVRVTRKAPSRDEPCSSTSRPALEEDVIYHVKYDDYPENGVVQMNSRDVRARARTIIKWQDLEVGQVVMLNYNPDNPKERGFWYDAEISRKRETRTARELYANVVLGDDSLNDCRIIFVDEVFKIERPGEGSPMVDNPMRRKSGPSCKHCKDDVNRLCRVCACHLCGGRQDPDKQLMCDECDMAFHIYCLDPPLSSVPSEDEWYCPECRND
Experimental: All SAXS samples were buffered in 20 mM Tris (pH 7.5), 150 mM NaCl, 5 mM DTT, 5 mM β-mercaptoethanol, 2 mM TCEP and 10 μM ZnCl2, and data were collected at concentrations ranging from ∼1 to 5 mg/ml. Measurements were carried out at Beamline 12-ID-B of the Advanced Photon Source, Argonne National Laboratory. The energy of the X-ray beam was 14 Kev (wavelength λ = 0.8856 Å), and two setups (small- and wide-angle X-ray scattering) were used simultaneously in which the sample to 2M detector distance was adjusted to achieve scattering q values of 0.006 < q < 2.6 Å^−1, where q = (4π/λ)sinθ, and 2θ is the scattering angle. To reduce radiation damage and obtain good statistics, thirty 2D images were recorded for each buffer or sample solution using a flow cell, with an accumulated exposure time of 0.4–2.0 s. No radiation damage was observed as confirmed by the absence of systematic signal changes in sequentially collected X-ray scattering images. The scattering profile of the protein was calculated by subtracting the background buffer contribution from the […] using the program PRIMUS (ATSAS package, EMBL) ([35]). Concentration series measurements for a sample were carried out to remove the scattering contribution caused by interparticle interactions and to extrapolate the data to infinite dilution. Guinier analysis and the experimental radius of gyration (Rg) estimation from the data of infinite dilution were performed using PRIMUS. The pair distance distribution function, P(r), and the maximum dimension of the protein, Dmax, in real space were calculated with the indirect Fourier transform using the program GNOM ([36]). To avoid underestimation of the molecular dimension and consequent distortion in low resolution structural reconstruction, the parameter Dmax, the upper end of distance r, was chosen such that the resulting PDDF has a short, near zero-value tail at large r. The Rg from P(r) analysis was also reported. The molecular weights were estimated using Vc ([37]) in the q range of 0 < q < 0.3 Å^−1. Fifteen ab initio shape reconstructions (molecular envelopes) were generated using DAMMIF ([38]) and averaged with DAMAVER ([39]). The structural models were superimposed and overlaid with the averaged envelope using SUPCOMP ([40]). The theoretical scattering intensity of a structural model was calculated and fitted to the experimental scattering intensity using CRYSOL ([41]).
Table S1 (related to Fig. 1, S1, S4): SAXS parameters for the TTD-PHD module SAXS HTG-TTD-PHDa TTD-PHD/BPCb […]
b UHRF1126-366 in complex with BPC (2 mM, 4% DMSO) […]
d Rg calculated using Guinier fit e Rg calculated using GNOM (5) f Maximum distance between atoms from GNOM g Volume of correlation (6) h Mw estimated from SAXS data using Vc (6). The Mw expected from sequence is shown in parentheses i Normalized spatial discrepancy. The values are the average and standard deviation from fifteen runs

[3] = 2 mM BPC, 4% DMSO, GNOM, Table S1

N=C(N)N1CCC(Cc2ccccc2)CC1 [BPC, 4-benzylpiperidine-1-carboximidamide]
Kdisp [1]: 312 µM
Dmax of TTD-PHD with BPC [2, 3]: 94 Å
Rg real (GNOM) of TTD-PHD with BPC [2, 3]: 27.1 Å
Rg (Guinier fit) of TTD-PHD with BPC ([2]; 2 mM BPC, 4% DMSO, Guinier fit, Table S1): 26.6 Å
Vc (volume of correlation) of TTD-PHD with BPC ([2]; 2 mM BPC, 4% DMSO, Table S1): 280.5
Rg (Guinier fit) of TTD–PHD with BPC ([2]; 4 mM BPC, 4% DMSO, 20 mM Tris pH 7.5, 150 mM NaCl, Guinier fit, apo 24.5): 27.1 Å
Vc (volume of correlation) of TTD–PHD with BPC ([2]; 4 mM BPC, 4% DMSO, apo 274.3): 284.4
Rg real (GNOM) of TTD–PHD with BPC ([2]; 4 mM BPC, 4% DMSO, from GNOM, apo 24.9): 27.2 Å
Dmax of TTD–PHD with BPC ([2]; 4 mM BPC, 4% DMSO, from GNOM, apo 83): 94 Å
shallow secondary shoulder of pair-distance distribution function ([2]; TTD–PHD with BPC (4 mM, 4% DMSO)): ~50 Å
